Assay results taken from US20150218599A1, “METHODS FOR PRODUCTION OF ALCOHOLS FROM CARBOXYLIC ACIDS VIA FERMENTATION” (Cornell University, priority 2012, published 2015).

What was measured:
C. ljungdahlii ERI-2 [1] = assay: Carboxylic acid reduction in batch cultures with constant syngas supply; assay type: cell-based, Clostridium ljungdahlii; settings: 15 mM carboxylic acid; for max. opt. density at 600 nm: triplicate
Method: (§1) All chemicals were purchased from Sigma-Aldrich, St. Louis, Mo., unless stated otherwise. Bacterial strain and growth conditions. Most experiments were conducted with C. ljungdahlii ERI-2 (ATTC 55380), which has been used successfully for syngas to ethanol fermentation. Some experiments were repeated with C. ragsdalei P11 (ATTC BAA-622). Bacteria were grown anaerobically at 35° C. in medium designed for efficient syngas fermentation. This medium is mostly based on ATCC medium 1754 but contains higher concentrations of the macronutrient elements. The yeast extract concentration was 0.5 g/L or 0.0 g/L as indicated for each experiment; the concentration of MES (2-(N-morpholino)ethanesulfonic acid) was 150 mM; carboxylic acids (propionic, n-butyric, isobutyric, n-valeric or n-caproic acid) were added to final concentrations of 15 mM before adjustment of the pH to 5.5. The syngas atmosphere was a synthetic blend of 60% [vol/vol]carbon monoxide, 35% hydrogen, and 5% carbon dioxide (Airgas East, Ithaca, N.Y.). Precultures of C. ljungdahlii or C. ragsdalei were grown in 250 ml serum bottles containing 20 ml medium with 0.5 g/L or 0.0 g/L yeast extract (the latter for inoculation of experiments with no yeast extract) and syngas in the headspace at a pressure of 28 psi with finite amounts of syngas. Precultures were maintained in an active state by weekly transfer of 2% into a fresh serum bottle with a headspace of finite syngas.
Experimental setup. The experiments to determine the ability of C. ljungdahlii to reduce propionic acid, n-butyric acid, n-valeric acid, n-caproic acid, or isobutyric acid (2-methyl propionic acid) to the corresponding alcohols were performed in triplicate in 250 ml rubber-stoppered Pyrex glass bottles (Fisher Scientific, Pittsburgh, Pa.), which were used as batch systems in regards to the growth medium, but with constant syngas supply (FIG. 1A). Three stainless steel needles of different length (21 gauge, Becton Dickinson Franklin Lakes, N.J., and ColeParmer, Vernon Hills, Ill.) were punched through each rubber stopper as gas supply, vent, and sample ports. The reactors were filled with 220 mL medium containing 0.5 g/L yeast extract and one of each carboxylic acids at a concentration of 15 mM, autoclaved, and then equipped with fermentation airlocks (www.winemakingsuperstore.com) filled with 5% sulfuric acid to prevent contamination by other microbes or oxygen, and placed in a temperature-controlled recirculating water bath for mechanical agitation using a 15 multi-position IKA magnetic stirrer (Cole-Parmer Vernon Hills, Ill. 60061 USA). Artificial syngas was constantly supplied to up to 12 reactors at a time, at a flow rate of 5 mL/min to each reactor with a gassing station with multiple outlets and low-flow brass needle valves (McMaster-Carr, Aurora, Ohio), sterile Masterflex viton tubing (Cole Parmer, Vernon Hills, Ill.), 0.22-μm sterile filters (Fisher Scientific), and sterile needles through the rubber stopper (size 6.5, VWR, Radnor, Pa.) connected to gas diffusion stones (Fisher Scientific). All reactors were inoculated with 2% exponentially growing pre-cultures. The fermentation was operated for ca. 400 h.
(§2) Analytical procedures. Cell dry weight concentration in the cultures was determined through measurement of the optical density with a Milton Roy Spectronic 1201 spectrophotometer at a wavelength of 600 nm after determining a correlation coefficient of 242 mg dry weight/(L*OD600nm). The carbon content was calculated using the universal proportion of elements in microbial biomass (C5H7O2N). A gas chromatography system (HP 5890, Hewlett Packard, Palo Alto, Calif.), which was equipped with a 7673 autoinjector and flame ionization detector, was used for the quantification of carboxylic acids and alcohols. GC columns were purchased from Sigma-Aldrich, Inc., St. Louis, Mo. The flow rates of hydrogen, air, and helium were 35, 380, and 30 mL/min. […]

C. ragsdalei P11 = assay: as above; assay type: cell-based, Clostridium ragsdalei; settings: 15 mM carboxylic acid; for max. opt. density at 600 nm: triplicate
Method: as §1
Experimental setup. The experiments to determine the ability of C. ljungdahlii to reduce propionic acid, n-butyric acid, n-valeric acid, n-caproic acid, or isobutyric acid (2-methyl propionic acid) to the corresponding alcohols were performed in triplicate in 250 ml rubber-stoppered Pyrex glass bottles (Fisher Scientific, Pittsburgh, Pa.), which were used as batch systems in regards to the growth medium, but with constant syngas supply (FIG. 1A). Three stainless steel needles of different length (21 gauge, Becton Dickinson Franklin Lakes, N.J., and ColeParmer, Vernon Hills, Ill.) were punched through each rubber stopper as gas supply, vent, and sample ports. […]
as §2, with “alcohols.” for “alcohols. GC columns were purchased from Sigma-Aldrich, Inc., St. Louis, Mo. The flow rates of hydrogen, air, and helium were 35, 380, and 30 mL/min.”

C. ljungdahlii ERI-2 [2] = assay: Batch syngas fermentation in 1 L bottles with a finite amount of syngas (stoichiometry); assay type: cell-based, Clostridium ljungdahlii; settings: 15 mM n-butyric acid, 25 to 115 h
Method: The stoichiometry of substrates and products of syngas fermentation with 0 mM n-butyric acid and 15 mM n-butyric acid was determined in 1 L rubber-stoppered Pyrex glass bottles filled with […] medium without yeast extract and 1051.6 ml syngas headspace at a pressure of 28 psi. […] Here, yeast extract was omitted from the growth medium to minimize the interference of organic compounds (amino acids) in the fermentation. Two needles, each connected to a three-way valve, were used to take gas or liquid samples from the reactor. Gas pressure was measured using gauge pressure transducers (Model PX26, Omega Engineering, Inc., Stamford, Conn.) attached to hypodermic needles inserted through a rubber septum on the three-way valve of the sampling port. […] Cell density (OD600nm), pH, headspace gas pressure, concentrations of carbon monoxide, hydrogen, and carbon dioxide in the headspace, and concentrations of carboxylic acids and solvents in the culture medium were monitored daily. […]
Analytical procedures. Cell dry weight concentration in the cultures was determined through measurement of the optical density with a Milton Roy Spectronic 1201 spectrophotometer at a wavelength of 600 nm after determining a correlation coefficient of 242 mg dry weight/(L*OD600nm). The carbon content was calculated using the universal proportion of elements in microbial biomass (C5H7O2N). […]

SMILES	growth rate (C. ljungdahlii ERI-2 [1]) [h⁻¹]	max. opt. density at 600 nm (C. ljungdahlii ERI-2 [1])	growth rate (C. ragsdalei P11) [h⁻¹]	max. opt. density at 600 nm (C. ragsdalei P11)	cell mass DW (C. ljungdahlii ERI-2 [2]) [mg]	maximum OD600 (C. ljungdahlii ERI-2 [2])
CC(C)C(=O)O [isobutyric acid]	0.077 ± 0.008	2.50 ± 0.31				
CCC(=O)O [propionic acid]	0.084 ± 0.012	2.69 ± 0.19	0.093 ± 0.024	0.53 ± 0.14		
CCCC(=O)O [n-butyric acid]	0.094 ± 0.004	2.71 ± 0.39	0.120 ± 0.004	0.98 ± 0.05	16.65 ± 2.99	1.34 ± 0.21
CCCCC(=O)O [n-valeric acid]	0.077 ± 0.007	2.01 ± 0.04				
CCCCCC(=O)O [n-caproic acid]	0.049 ± 0.003	1.47 ± 0.17				
